Experimental data: patent publication EP0234431A2, “5-Hydroxydihydrofusarubin, a process for its preparation and its use for the preparation of a medicament” (HOECHST JAPAN LIMITED, priority 1986, dated 1987)
Values after ≈ are worked out from the molar mass of the structure shown.

Assays:
[1] = tested on: mouse leukemia L1210 cells; experiment: Antitumor test, growth inhibition of L1210 cells in suspension; type: cell-based; conditions: growth of mouse leukemia L1210 cells in suspension (1 x 10⁶/mouse)
Description: An antitumor test was carried out for 5-hydroxy dihydrofusarubin. Half value (IC₅₀) inhibiting growth of mouse leukemia L1210 cells in suspension (1 x 10⁶/mouse) was as follows: […]

[2] = tested on: Saccharomyces cereviciae ATCC 9763; experiment: Antimicrobial test, agar plate-dilution method; type: cell-based; conditions: ATCC9763
Description: (§1) Minimum inhibitory concentrations (MIC) of 5-hydroxydihydrofusarubin (I) against bacteria and fungi were determined by the agar plate-dilution method.

[3] = tested on: Streptococcus pneumoniae DP-1; experiment: Antimicrobial test, agar plate-dilution method; type: cell-based; conditions: DP1
Description: as §1

[4] = tested on: Bacillus subtilis ATCC 6633; experiment: Antimicrobial test, agar plate-dilution method; type: cell-based; conditions: ATCC6633
Description: as §1

Candida albicans C-a-30 = experiment: Antimicrobial test, agar plate-dilution method; type: cell-based; conditions: CA30
Description: as §1

[5] = tested on: Staphylococcus aureus FDA209PJC1; experiment: Antimicrobial test, agar plate-dilution method; type: cell-based
Description: as §1

[6] = Solubility (physicochemical properties)
Description: Physicochemical properties of 5-hydroxydihydrofusarubin (I) produced by the present invention are as follows: • (1) Appearance: Orange plates • (2) Molecular formula: C₁₅H₁₈O₇ • (3) Molecular weight: 310 • (4) Melting point: 192-193°C • (5) Optical rotation: -171.4 (in 0.06% acetone solution) • (6) Ultraviolet and visible absorption spectrum: in 95% ethanol solution: λ max (nm) (logε) 211(4.17), 245(4.08), 284(3.97), 359(3.88) • (7) Infrared absorption spectrum: The infrared absorption spectrum measured in potassium bromide tablet is shown in Fig. 1. • (8) ¹H-NMR: ¹H-NMR measured in deuteriumchloroform is shown in Fig. 2. Chemical shifts were assigned as shown below. [formula] • (9) ¹³C-NMR: ¹³C-NMR measured in deuteriumchloroform is shown in Fig. 3. Chemical shifts were assigned as shown below. [formula] • (10) Solubility: Soluble in chloroform, methylene chloride, ethyl acetate, acetone, ethanol or methanol. […] Solubility in water: Insoluble under acidic or neutral condition, and soluble under alkaline condition.

**Q.** For COc1cc(O)c2c(c1O)C(O)C1CC(C)(O)OCC1C2=O (stereo not shown) [5-Hydroxydihydrofusarubin], which IC50 [1] is on record?
**A.** 9.4 ± 0.9 µg/mL (≈ 30.3 µM)

**Q.** And the MIC [2]?
**A.** 50 µg/mL (≈ 161 µM)

**Q.** What about the MIC [3] of the same compound?
**A.** 50 µg/mL (≈ 161 µM)

**Q.** And the MIC [4]?
**A.** 100 µg/mL (≈ 322 µM)

**Q.** What about the MIC (Candida albicans C-a-30) of the same compound?
**A.** 100 µg/mL (≈ 322 µM)

**Q.** What about the MIC [5] of the same compound?
**A.** 100 µg/mL (≈ 322 µM)

**Q.** What about the Solubility ([6]; in chloroform, methylene chloride, ethyl acetate, acetone, ethanol or methanol) of the same compound?
**A.** Soluble

**Q.** What about the Solubility ([6]; in hexane or petroleum ether) of the same compound?
**A.** Sparingly soluble

**Q.** What about the Solubility in water ([6]; under acidic or neutral condition) of the same compound?
**A.** Insoluble

**Q.** And the Solubility in water ([6]; under alkaline condition)?
**A.** soluble
